# In US10758534B2 (Vertex Pharmaceuticals Incorporated, priority 2014, dated 2020):
# Biological target: T1, F508del (Homo sapiens, UniProt P13569, DEL508-508)
# T1 construct: expressed in transfected cells
# Test: Protocol 2: FRET membrane potential optical assay (VIPR), identification of correction compounds
# Assay type: cell-based
# Details: Table 3; compounds of Table 1 as modulators of CFTR activity; protocol not stated
# Method in brief: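 Correction of the F508del trafficking defect is scored as forskolin (10 μM)/genistein (20 μM)-stimulated Cl^− efflux in NIH3T3 mouse fibroblasts after a 16 hr, 37° C. compound exposure. Depolarization was followed optically using voltage-sensing FRET dyes.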
# T1 sequence (P13569 with tags, fused parts or gaps DEL508-508): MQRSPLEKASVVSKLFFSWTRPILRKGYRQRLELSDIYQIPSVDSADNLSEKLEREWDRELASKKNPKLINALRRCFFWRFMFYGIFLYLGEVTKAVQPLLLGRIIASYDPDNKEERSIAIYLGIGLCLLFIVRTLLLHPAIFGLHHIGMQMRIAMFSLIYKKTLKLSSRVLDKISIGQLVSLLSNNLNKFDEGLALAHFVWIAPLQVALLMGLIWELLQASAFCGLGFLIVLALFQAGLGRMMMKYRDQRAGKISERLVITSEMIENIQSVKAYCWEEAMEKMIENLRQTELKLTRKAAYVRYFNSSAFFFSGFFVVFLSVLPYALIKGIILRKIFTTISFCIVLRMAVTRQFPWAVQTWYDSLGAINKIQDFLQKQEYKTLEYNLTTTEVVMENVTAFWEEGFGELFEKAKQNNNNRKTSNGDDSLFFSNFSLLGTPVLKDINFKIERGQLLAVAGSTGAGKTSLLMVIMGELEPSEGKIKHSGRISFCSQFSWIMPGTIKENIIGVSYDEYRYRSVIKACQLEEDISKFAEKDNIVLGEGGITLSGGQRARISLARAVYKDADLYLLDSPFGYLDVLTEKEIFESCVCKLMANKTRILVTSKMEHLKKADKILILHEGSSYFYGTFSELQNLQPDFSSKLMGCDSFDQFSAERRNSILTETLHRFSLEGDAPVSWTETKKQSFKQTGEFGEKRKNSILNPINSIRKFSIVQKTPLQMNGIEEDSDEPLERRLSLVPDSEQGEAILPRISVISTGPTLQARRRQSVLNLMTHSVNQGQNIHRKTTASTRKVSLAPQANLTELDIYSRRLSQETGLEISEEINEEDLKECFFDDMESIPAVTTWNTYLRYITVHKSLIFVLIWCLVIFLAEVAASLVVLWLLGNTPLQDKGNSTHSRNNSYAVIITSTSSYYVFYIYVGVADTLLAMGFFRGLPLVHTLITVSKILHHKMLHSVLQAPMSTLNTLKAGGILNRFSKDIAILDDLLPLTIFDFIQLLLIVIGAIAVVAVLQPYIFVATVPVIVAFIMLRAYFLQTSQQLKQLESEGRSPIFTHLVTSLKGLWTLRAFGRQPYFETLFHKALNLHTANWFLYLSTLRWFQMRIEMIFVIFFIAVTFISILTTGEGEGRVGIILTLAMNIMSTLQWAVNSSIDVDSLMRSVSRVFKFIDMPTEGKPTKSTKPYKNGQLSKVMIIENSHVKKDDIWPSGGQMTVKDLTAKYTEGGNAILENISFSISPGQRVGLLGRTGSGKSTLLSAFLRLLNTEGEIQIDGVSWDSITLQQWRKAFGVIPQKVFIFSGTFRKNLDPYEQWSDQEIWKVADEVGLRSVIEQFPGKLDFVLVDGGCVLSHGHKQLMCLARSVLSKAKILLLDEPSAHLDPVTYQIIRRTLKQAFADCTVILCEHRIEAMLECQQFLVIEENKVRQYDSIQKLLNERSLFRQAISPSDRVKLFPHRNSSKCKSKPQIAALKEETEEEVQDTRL
compound,measurement,value
"CC(C)Oc1ccc(-c2ccc(C(=O)NS(=O)(=O)c3cccc(N)n3)c(N3CCC[C@@H](C)C3)n2)cn1 [Compound 757, N-[(6-amino-2-pyridyl)sulfonyl]-6-(6-isopropoxy-3-pyridyl)-2-[(3R)-3-methyl-1-piperidyl]pyridine-3-carboxamide]",EC30,+++ (“+++” means <3 uM)
"Cc1ccc(Oc2nc(-c3cc(F)cc(OCC(C)C)c3)ccc2C(=O)NS(=O)(=O)c2ccn[nH]2)cc1 [Compound 758, 6-(3-fluoro-5-isobutoxy-phenyl)-2-(4-methylphenoxy)-N-(1H-pyrazol-5-ylsulfonyl)pyridine-3-carboxamide]",EC30,++ (“++” means between 3 uM and 10 uM)
"COc1ncccc1S(=O)(=O)NC(=O)c1cc(C(C)(C)C)nn1Cc1c(C)cc(C)cc1C [Compound 759, 5-tert-butyl-N-[(2-methoxy-3-pyridyl)sulfonyl]-2-[(2,4,6-trimethylphenyl)methyl]pyrazole-3-carboxamide]",EC30,+++ (“+++” means <3 uM)
"C[C@@H]1CC[C@H](C)N1c1nc(-c2ccc(Cl)cc2)ccc1C(=O)NS(=O)(=O)c1ccc[nH]c1=O [Compound 760, 6-(4-chlorophenyl)-2-[(2S,5R)-2,5-dimethylpyrrolidin-1-yl]-N-[(2-oxo-1H-pyridin-3-yl)sulfonyl]pyridine-3-carboxamide]",EC30,++ (“++” means between 3 uM and 10 uM)
"Cc1ccccc1-c1ccc(C(=O)NS(=O)(=O)c2cccc(N)n2)c(N2CC(C)CC2(C)C)n1 (centres unmarked) [Compound 761, N-[(6-amino-2-pyridyl)sulfonyl]-6-(o-tolyl)-2-(2,2,4-trimethylpyrrolidin-1-yl)pyridine-3-carboxamide]",EC30,+++ (“+++” means <3 uM)
"COc1ccc(F)c(-c2ccc(C(=O)NS(=O)(=O)c3ccc[nH]c3=O)c(Oc3c(C)cc(C)cc3C)n2)c1 [Compound 762, 6-(2-fluoro-5-methoxy-phenyl)-N-[(2-oxo-1H-pyridin-3-yl)sulfonyl]-2-(2,4,6-trimethylphenoxy)pyridine-3-carboxamide]",EC30,++ (“++” means between 3 uM and 10 uM)
"Cc1cc(C(=O)NS(=O)(=O)c2cccc(N)n2)c(N2CC(C)CC2(C)C)nc1-c1ccc(F)cc1 (centres unmarked) [Compound 763, N-[(6-amino-2-pyridyl)sulfonyl]-6-(4-fluorophenyl)-5-methyl-2-(2,2,4-trimethylpyrrolidin-1-yl)pyridine-3-carboxamide]",EC30,+++ (“+++” means <3 uM)
"CC(C)Oc1ccc(-c2ccc(C(=O)NS(=O)(=O)c3cccc(N)n3)c(N3CC[C@H](C)[C@H]3C)n2)cn1 [Compound 764, N-[(6-amino-2-pyridyl)sulfonyl]-2-[(2R,3S)-2,3-dimethylpyrrolidin-1-yl]-6-(6-isopropoxy-3-pyridyl)pyridine-3-carboxamide]",EC30,+++ (“+++” means <3 uM)
"COc1ncccc1S(=O)(=O)NC(=O)C1(C)c2ccccc2CN1Cc1c(C)cc(C)cc1C (centres unmarked) [Compound 765, N-[(2-methoxy-3-pyridyl)sulfonyl]-1-methyl-2-[(2,4,6-trimethylphenyl)methyl]isoindoline-1-carboxamide]",EC30,++ (“++” means between 3 uM and 10 uM)
"CC(C)Oc1ccc(-c2ccc(C(=O)NS(=O)(=O)c3cccc(N)n3)c(NC(C)c3ccccc3)n2)cn1 (centres unmarked) [Compound 766, N-[(6-amino-2-pyridyl)sulfonyl]-6-(6-isopropoxy-3-pyridyl)-2-(1-phenylethylamino)pyridine-3-carboxamide]",EC30,++ (“++” means between 3 uM and 10 uM)
"Cc1cc(C)c(Oc2nc(C(C)(C)C)ccc2C(=O)NS(=O)(=O)c2cccc(N)n2)c(C#N)c1 [Compound 767, N-[(6-amino-2-pyridyl)sulfonyl]-6-tert-butyl-2-(2-cyano-4,6-dimethyl-phenoxy)pyridine-3-carboxamide]",EC30,+++ (“+++” means <3 uM)
"COc1cc(-c2ccc(C(=O)NS(=O)(=O)c3cccc(N)n3)c(Oc3c(C)cc(C)cc3C)n2)ccc1O [Compound 768, N-[(6-amino-2-pyridyl)sulfonyl]-6-(4-hydroxy-3-methoxy-phenyl)-2-(2,4,6-trimethylphenoxy)pyridine-3-carboxamide]",EC30,++ (“++” means between 3 uM and 10 uM)
"CC(C)COc1cc(F)cc(-c2ccc(C(=O)NS(=O)(=O)c3cccc(N)n3)c(OCC3CC3(F)F)n2)c1 (centres unmarked) [Compound 769, N-[(6-amino-2-pyridyl)sulfonyl]-2-[(2,2-difluorocyclopropyl)methoxy]-6-(3-fluoro-5-isobutoxy-phenyl)pyridine-3-carboxamide]",EC30,+++ (“+++” means <3 uM)
"CC(C)Oc1ccc(-c2ccc(C(=O)NS(=O)(=O)c3ccc[nH]c3=O)c(N3[C@H](C)CC[C@@H]3C)n2)cn1 [Compound 770, 2-[(2S,5R)-2,5-dimethylpyrrolidin-1-yl]-6-(6-isopropoxy-3-pyridyl)-N-[(2-oxo-1H-pyridin-3-yl)sulfonyl]pyridine-3-carboxamide]",EC30,++ (“++” means between 3 uM and 10 uM)
"Cc1cc(C)c(Oc2nc(-c3cc(F)cc(OCC(C)C)c3)ccc2C(=O)NS(=O)(=O)c2cccc(C#N)n2)c(C)c1 [Compound 771, N-[(6-cyano-2-pyridyl)sulfonyl]-6-(3-fluoro-5-isobutoxy-phenyl)-2-(2,4,6-trimethylphenoxy)pyridine-3-carboxamide]",EC30,+++ (“+++” means <3 uM)
"CC(C)COc1cc(F)cc(-c2ccc(C(=O)NS(=O)(=O)c3cccc(N)n3)c(N3CCCC3Cc3ccccc3)n2)c1 (centres unmarked) [Compound 772, N-[(6-amino-2-pyridyl)sulfonyl]-2-(2-benzylpyrrolidin-1-yl)-6-(3-fluoro-5-isobutoxy-phenyl)pyridine-3-carboxamide]",EC30,+++ (“+++” means <3 uM)
"CCCOc1cc(-c2ccc(C(=O)NS(=O)(=O)c3cccc(N)n3)c(N3[C@H](C)CC[C@@H]3C)n2)ccc1Cl [Compound 773, N-[(6-amino-2-pyridyl)sulfonyl]-6-(4-chloro-3-propoxy-phenyl)-2-[(2R,5S)-2,5-dimethylpyrrolidin-1-yl]pyridine-3-carboxamide]",EC30,+++ (“+++” means <3 uM)
"COC1(C)CCN(c2nc(-c3cc(F)cc(OCC(C)C)c3)ccc2C(=O)NS(=O)(=O)c2ccn[nH]2)CC1 [Compound 774, 6-(3-fluoro-5-isobutoxy-phenyl)-2-(4-methoxy-4-methyl-1-piperidyl)-N-(1H-pyrazol-5-ylsulfonyl)pyridine-3-carboxamide]",EC30,+++ (“+++” means <3 uM)
"CC(C)COc1cc(F)cc(-c2ccc(C(=O)NS(=O)(=O)c3cccc(=O)[nH]3)c(N3CCC(C)(C)CC3)n2)c1 [Compound 775, 2-(4,4-dimethyl-1-piperidyl)-6-(3-fluoro-5-isobutoxy-phenyl)-N-[(6-oxo-1H-pyridin-2-yl)sulfonyl]pyridine-3-carboxamide]",EC30,+++ (“+++” means <3 uM)
"CC(C)Oc1ccc(-c2ccc(C(=O)NS(=O)(=O)c3ccn[nH]3)c(N3CCC[C@@H](c4ccccc4)C3)n2)cn1 [Compound 776, 6-(6-isopropoxy-3-pyridyl)-2-[(3S)-3-phenyl-1-piperidyl]-N-(1H-pyrazol-5-ylsulfonyl)pyridine-3-carboxamide]",EC30,+++ (“+++” means <3 uM)
"CC(C)COc1cccc(-c2ccc(C(=O)NS(=O)(=O)c3cccc(N)n3)c(N3CCC(C)CC3)n2)c1 [Compound 777, N-[(6-amino-2-pyridyl)sulfonyl]-6-(3-isobutoxyphenyl)-2-(4-methyl-1-piperidyl)pyridine-3-carboxamide]",EC30,+++ (“+++” means <3 uM)
"Cc1ccccc1Oc1nc(-c2cc(F)cc(OCC(C)C)c2)ccc1C(=O)NS(=O)(=O)c1cccc(N)n1 [Compound 778, N-[(6-amino-2-pyridyl)sulfonyl]-6-(3-fluoro-5-isobutoxy-phenyl)-2-(2-methylphenoxy)pyridine-3-carboxamide]",EC30,+++ (“+++” means <3 uM)
"CC1CN(c2nc(-c3cncc(OCC(C)(C)C)n3)ccc2C(=O)NS(=O)(=O)c2cccc(N)n2)C(C)(C)C1 (centres unmarked) [Compound 779, N-[(6-amino-2-pyridyl)sulfonyl]-6-[6-(2,2-dimethylpropoxy)pyrazin-2-yl]-2-(2,2,4-trimethylpyrrolidin-1-yl)pyridine-3-carboxamide]",EC30,+++ (“+++” means <3 uM)
"CC(C)COc1cc(F)cc(-c2ccc(C(=O)NS(=O)(=O)c3cccc(N)n3)c(N3CCC(C(F)(F)F)C3(C)C)n2)c1 (centres unmarked) [Compound 780, N-[(6-amino-2-pyridyl)sulfonyl]-2-[2,2-dimethyl-3-(trifluoromethyl)pyrrolidin-1-yl]-6-(3-fluoro-5-isobutoxy-phenyl)pyridine-3-carboxamide]",EC30,+++ (“+++” means <3 uM)
"COc1cccc(-c2ccc(C(=O)NS(=O)(=O)c3ccc[nH]c3=O)c(N3[C@H](C)CC[C@@H]3C)n2)n1 [Compound 781, 2-[(2S,5R)-2,5-dimethylpyrrolidin-1-yl]-6-(6-methoxy-2-pyridyl)-N-[(2-oxo-1H-pyridin-3-yl)sulfonyl]pyridine-3-carboxamide]",EC30,+ (“+” means greater than 10 uM)
"Cc1ccccc1C(C)Oc1nc(-c2cc(F)cc(OCC(C)C)c2)ccc1C(=O)NS(=O)(=O)c1cccc(N)n1 (centres unmarked) [Compound 782, N-[(6-amino-2-pyridyl)sulfonyl]-6-(3-fluoro-5-isobutoxy-phenyl)-2-[1-(o-tolyl)ethoxy]pyridine-3-carboxamide]",EC30,+++ (“+++” means <3 uM)
"Cc1cc(C)c(Oc2nc(C3CCC(F)(F)CC3)ccc2C(=O)NS(=O)(=O)c2cccc(N)n2)c(C)c1 [Compound 783, N-[(6-amino-2-pyridyl)sulfonyl]-6-(4,4-difluorocyclohexyl)-2-(2,4,6-trimethylphenoxy)pyridine-3-carboxamide]",EC30,+++ (“+++” means <3 uM)
"Cc1cc(C)c(Oc2nc(-c3ccccc3)ccc2C(=O)NS(=O)(=O)c2ccn[nH]2)c(C)c1 [Compound 784, 6-phenyl-N-(1H-pyrazol-5-ylsulfonyl)-2-(2,4,6-trimethylphenoxy)pyridine-3-carboxamide]",EC30,+++ (“+++” means <3 uM)
"Cc1cc(C)c(Oc2nc(N3CCCCC3)ccc2C(=O)NS(=O)(=O)c2cccc(N)n2)c(C)c1 [Compound 785, N-[(6-amino-2-pyridyl)sulfonyl]-6-(1-piperidyl)-2-(2,4,6-trimethylphenoxy)pyridine-3-carboxamide]",EC30,+++ (“+++” means <3 uM)
